How the values were obtained:
Human VR1 Receptor [1] = biological target: T1, Human VR1 Receptor (Homo sapiens, UniProt Q8NER1); assay: Inhibition of pH-induced activation of VR1; assay type: cell-based; details: mean ± spread, (n) = number of experiments, read-out: Inhibition of pH-induced activation IC50 (nM) Mean IC50 ± SEC (n)
From the text: (§1) Binding of the Thiadiazolylpiperazine Compounds to the Human VR1 Receptor
(§2) Methods for assaying compounds capable of inhibiting VR1 are well known to those skilled in the art, for example, those methods disclosed in U.S. Pat. No. 6,239,267 to Duckworth et al.; U.S. Pat. No. 6,406,908 to McIntyre et al.; or U.S. Pat. No. 6,335,180 to Julius et al.

Human VR1 Receptor [2] = biological target: T1, Human VR1 Receptor; assay: Inhibition of capsaicin-induced activation of VR1; assay type: cell-based; details: mean ± spread, (n) = number of experiments, read-out: Inhibition of capsaicin-induced activation IC50 (nM) Mean IC50 ± SEC (n)
From the text: as §1, §2

T1 sequence (Q8NER1 whole entry): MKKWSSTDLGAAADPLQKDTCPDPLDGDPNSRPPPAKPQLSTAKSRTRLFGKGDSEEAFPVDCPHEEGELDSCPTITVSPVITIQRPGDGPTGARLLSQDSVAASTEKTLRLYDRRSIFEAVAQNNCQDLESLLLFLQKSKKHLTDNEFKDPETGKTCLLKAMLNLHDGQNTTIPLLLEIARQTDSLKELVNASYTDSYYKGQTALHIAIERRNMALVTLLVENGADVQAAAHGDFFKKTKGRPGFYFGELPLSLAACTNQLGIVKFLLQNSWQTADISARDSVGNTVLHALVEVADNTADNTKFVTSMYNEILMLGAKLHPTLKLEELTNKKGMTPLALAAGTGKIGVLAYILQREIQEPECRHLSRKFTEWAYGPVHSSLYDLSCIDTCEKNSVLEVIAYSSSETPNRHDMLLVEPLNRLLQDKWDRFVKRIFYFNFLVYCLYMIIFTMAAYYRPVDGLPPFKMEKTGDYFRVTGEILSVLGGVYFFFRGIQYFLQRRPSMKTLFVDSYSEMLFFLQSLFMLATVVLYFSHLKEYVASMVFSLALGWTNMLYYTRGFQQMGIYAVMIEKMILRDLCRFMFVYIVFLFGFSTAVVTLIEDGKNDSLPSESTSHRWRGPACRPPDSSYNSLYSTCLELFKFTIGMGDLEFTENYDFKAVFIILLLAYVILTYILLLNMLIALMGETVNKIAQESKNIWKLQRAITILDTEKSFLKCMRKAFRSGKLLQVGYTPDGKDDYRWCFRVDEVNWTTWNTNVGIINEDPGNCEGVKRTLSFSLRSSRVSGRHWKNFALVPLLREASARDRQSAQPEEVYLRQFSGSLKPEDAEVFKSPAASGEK

Work on `CC(C)c1ccc(NC(=O)N2CCN(c3nsnc3Cl)CC2)cc1` yielded an IC50 (Human VR1 Receptor [1]) of 668 ± 265 nM and an IC50 (Human VR1 Receptor [2]) of 374 ± 233 nM.
